Measured values taken from the NIST ThermoML archive (doi:10.1021/acs.jced.8b01217).

Settings: Liquid, Ebulliometric method (Recirculating still)

O [water]
Settings | vapor or sublimation pressure [kPa]
310.81 K | 6.424
327.62 K | 15.58
339.92 K | 27.15
349.24 K | 41.77
353.35 K | 47.72
357.89 K | 57.67
362.48 K | 68.16
366.81 K | 80.61
370.97 K | 93.23
375.04 K | 107.24
